39 molecules from a melting point compilation (Tetko et al.) can be followed below.

As for `CC(C)(C)OOC(C)(C)C`, the melting point was -30 °C.

`Cc1ccc(S(=O)(=O)OCC2OC(C)(C)OC2COS(=O)(=O)c2ccc(C)cc2)cc1` (centres undefined) had a melting point of 92 °C.

Take `O=P(O)(O)OC1C(O)C(O)C(O)C(O)C1O` (centres undefined): the melting point was determined as 195 °C.

In the case of `C=CCC1(O)CCC2C3CCC4=CCCCC4C3CCC21C` (centres undefined), the melting point stood at 80 °C.

Turning to `CC(=O)OC1=c2ccc([N+](=O)[O-])cc2=NC1=c1ccc(=C2N=c3cc([N+](=O)[O-])ccc3=C2OC(C)=O)cc1`, the melting point amounted to 280 °C.

As to `CCC(=C(c1ccccc1)c1ccc(OCCN(C)C)cc1)c1ccccc1`, the melting point was 96 °C.

Molecule `O=c1cc(-c2ccc(F)cc2)oc(-c2ccc(F)cc2)c1` gave a melting point of 168 to 169 °C.

The molecule `Cc1ccccc1C=CC(=O)O` yielded a melting point of 175 to 177 °C.

`OCc1ccc(O)cc1` gave a melting point of 124 °C.

Molecule `CCOC(=O)c1cnc2c(c(C)nn2C)c1Oc1cc(Cl)cc(Cl)c1` yielded a melting point of 115 to 117 °C.

With `COc1ccc(C=CC(=O)c2ccc(F)cc2)c(OC)c1`, the melting point lay in the range of 117 to 122 °C.

The molecule `O=C(Oc1cc(Cl)cc(Cl)c1)c1ccc(C(=O)Oc2cc(Cl)cc(Cl)c2)cc1` gave a melting point of 230 °C.

`C=C[Si](OC(C)=O)(OC(C)=O)OC(C)=O` came in with a melting point of 7 °C.

The molecule `c1cc(N2CCCC2)ccn1` registered a melting point of 56 °C.

For `CCN(CC)C(=S)SC(=S)N(CC)CC`, the melting point came out at 31 °C.

`CC12CCC(C(CO)C1=O)C2(C)C` (centres undefined) registered a melting point of 138 °C.

On to `CC1(C)CC(N)CC(C)(C)N1`, for which the melting point came to 17 °C.

As to `CCOC(=O)c1ccc(Br)cc1`, the melting point was found to be 18 °C.

For the molecule `COc1cc(OC(C)=O)c2c(=O)c(O[C@@H]3O[C@H](COC(C)=O)[C@H](OC(C)=O)[C@H](OC(C)=O)[C@@H]3O[C@@H]3O[C@H](C)[C@H](OC(C)=O)[C@H](OC(C)=O)[C@@H]3OC(C)=O)c(-c3ccc(OC(C)=O)cc3)oc2c1`, the melting point was 118 to 120 °C.

Molecule `N#Cc1c(Cl)cccc1Oc1ccccc1` registered a melting point of 61 °C.

On to `CNC(=O)Cc1ccccc1`, for which the melting point lay within 55 to 59 °C.

In turn, `CC12CCC(C(Cl)C1=O)C2(C)C` (centres undefined) displayed a melting point of 106 °C.

For `CN(C(=O)C(F)(F)C(F)(F)C(F)(F)C(F)(F)C(F)(F)C(F)(F)C(F)(F)C(F)(F)F)C1CCCCC1`, the melting point stood at 57 °C.

Turning to `O=C(c1ccccc1)c1cccc2ccccc12`, the melting point is 76 °C.

`COc1c(Cl)cc(Cl)c(OC)c1C(N)=O`: the melting point lay in the range of 148 to 149 °C.

`Cc1cc(C(=O)O)oc1C` came in with a melting point of 146 to 148 °C.

In turn, `Nc1nc[nH]c(=O)n1` showed a melting point of 300 °C.

The molecule `Cc1c(C2(c3cc(Br)c(O)c(Br)c3C)OS(=O)(=O)c3ccccc32)cc(Br)c(O)c1Br` yielded a melting point of 222 °C.

In turn, `CCOC(=O)c1nn(-c2ccc(C)cc2)c(=N)c(C#N)c1C` yielded a melting point of 150 °C.

The molecule `CC(=CC(=O)O)C(F)(F)F` displayed a melting point of 28 to 30 °C.

As for `COc1cc([N+](=O)[O-])cc(C=O)c1O`, the melting point stood at 140 °C.

As for `COc1cc(C(=O)O)cc(Cl)n1`, the melting point lay within 214 to 216 °C.

In turn, `NCC(O)C(=O)O` (centres undefined) registered a melting point of 235 °C.

With `Cc1cc(CO)ccc1[N+](=O)[O-]`, the melting point lay within 56 to 60 °C.

In turn, `CNC(=O)c1cc([N+](=O)[O-])cc([N+](=O)[O-])c1` yielded a melting point of 148 to 149 °C.

The molecule `NS(=O)(=O)c1cc(Cl)cc(Cl)c1` had a melting point of 170 to 172 °C.

Consider `CCOC(=O)Oc1c(OC)cc(C(=O)OC2CC3CN4CCc5c([nH]c6cc(OC)ccc56)C4CC3C(C(=O)OC)C2OC)cc1OC` (centres undefined), for which the melting point turned out to be 177 °C.

Regarding `CC(=O)Oc1cn(C(C)=O)c2ccc(Br)cc12`, the melting point fell in the range of 124 to 128 °C.

Molecule `CN(N)c1ccc(C(F)(F)F)cc1[N+](=O)[O-]` came in with a melting point of 68 to 70 °C.
